Assay results taken from PMC4698665, “Functional Analysis of Esterase TCE2 Gene from Tetranychus cinnabarinus (Boisduval) involved in Acaricide Resistance” (Scientific Reports, 2016).

B1: recombinant TCE2 (Tetranychus cinnabarinus) (protein)
chain: DVSEEPTLTISTGQIKGKSVLFRGCEVHQFLGIPFAEPPLDELRFIKPVPKSSWSNVLDVKEWKPHCMQTFLPGFNDGYSFDEDCLFLNVIVTQSTLAAVQNDTTKLRPVMVWIHGGGFLFGSANNAFYDGTALAVMNDVVFVSINYRLGAFGFLHLPESGIPGNMGLWDQLLALKWIQNNIHFFGGNPDQVTIFGESAGSMSVSAHILSPQSNGLFKNAIMQSGSLYNIPLWINPRTSEIALERVNCTSAIDKVSCLRSVQAENFNLIAEFYPVMGDEFLPSEPEKLIKSLDKNVNILLGVVGNEGVGLFRYLRFDERFFNPNNPVNLTYVQARNFVKQLFGEQREQLFTQEYLSHIDRYDHYAFGLAIGHVLGDISLTCPTYMFGHDAVKTGKANVYAYFQTQKPSKTPISLTPNNTWIPATHCDDLPMVFGLPFTDPPGYSKEDTLLSLMMMNAWGSFAKFGEPQFFGDPKRWRKWKIESGKGDKFVMELNAQRFGLSNNRLAVKCEKNWPFPMDSVNLNVNFDEIINLNHDEL
notes: pCold II (vector His tag), E. coli BL21(DE3), Ni-NTA purified; about 63 kDa

Experiments:
recombinant TCE2 [1] = target: T1, recombinant TCE2 (Tetranychus cinnabarinus, UniProt B3TFG7); experiment: colorimetric esterase inhibition assay, microplate (Fast blue B, […] nm); format: biochemical
T1 construct: pCold II (vector His tag), E. coli BL21(DE3), Ni-NTA purified; about 63 kDa
T1 sequence (B3TFG7 24-560): B1 chain

recombinant TCE2 [2] = target: T1, recombinant TCE2; experiment: Dixon plot, colorimetric esterase assay (Fast blue B); format: biochemical
purified protein = substrate: CC(=O)Oc1cccc2ccccc12; experiment: purified protein; format: biochemical, Tetranychus cinnabarinus; settings: 0.04 M PBS pH 7.4, 30 °C, 10 min

| Molecule | IC50 (recombinant TCE2 [1]) [µM] | Ki (recombinant TCE2 [2]) [µM] | Km (purified protein) [µM] | Vmax (purified protein) [µmol/min/mg] |
| --- | --- | --- | --- | --- |
| COCCOC(=O)C(C#N)(C(=O)c1ccccc1C(F)(F)F)c1ccc(C(C)(C)C)cc1 (stereo not drawn) [cyflumetofen] | 129 ± 12.7 | 182 ± 17.7 | – | – |
| CC1(C)C(C(=O)OC(C#N)c2cccc(Oc3ccccc3)c2)C1(C)C (stereo not drawn) [fenpropathrin] | 235 ± 15.3 | 356 ± 35.4 | – | – |
| B1 | – | – | 30.5 ± 5.9 | 0.448 |
